Experimental data as given in US20170240556A1, “BIFLUORODIOXALANE-AMINO-BENZIMIDAZOLE KINASE INHIBITORS FOR THE TREATMENT OF CANCER, AUTOIMMUNEINFLAMMATION AND CNS DISORDERS” (4SC DISCOVERY GMBH, priority 2012, published 2017).
pIC50: −log10 of the molar value.

target: Casein kinase 1 delta (CSKN1D) (Homo sapiens, UniProt P48730); assay: Casein kinase assay, CK1 delta; type: biochemical; conditions: recombinant CSKN1D 5 nM, ATP 10 μM
Procedure: The recombinant protein Casein kinase 1 delta (CSKN1D) was added to the substrate solution in a concentration of 5 nM and gently mixed. Dilution series in of compounds of the present invention in DMSO were added to the reaction mixture, followed after 20 min by addition of a mixture of ATP and ^33P-ATP (specific activity 0.01 μCi/μl final) to a final concentration of 10 μM. Reactions were carried out at 25° C. for 120 min, followed by spotting the reactions onto P81 ion exchange filter paper. Unbound phosphate was removed by washing of the filters in 0.75% phosphoric acid. […] IC50 values and curve fits were obtained using the program Prism® (Graph Pad Software).

Chain of Casein kinase 1 delta (CSKN1D) (P48730 whole entry): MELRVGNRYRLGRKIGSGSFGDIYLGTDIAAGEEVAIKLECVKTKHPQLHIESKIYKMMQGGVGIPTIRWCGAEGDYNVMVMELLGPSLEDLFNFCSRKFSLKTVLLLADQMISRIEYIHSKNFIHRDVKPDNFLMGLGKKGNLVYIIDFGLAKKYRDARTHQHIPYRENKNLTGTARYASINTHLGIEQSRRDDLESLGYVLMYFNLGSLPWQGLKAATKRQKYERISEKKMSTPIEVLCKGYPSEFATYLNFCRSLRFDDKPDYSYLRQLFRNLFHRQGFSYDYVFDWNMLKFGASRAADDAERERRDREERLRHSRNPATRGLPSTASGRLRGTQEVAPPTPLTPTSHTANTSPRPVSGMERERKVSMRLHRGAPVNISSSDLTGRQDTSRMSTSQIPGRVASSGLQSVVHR

With O=C(Nc1nc2cc3c(cc2[nH]1)OC(F)(F)O3)c1cncc(-c2ccco2)c1 [Compound 4B, N-(2,2-difluoro-5H-[1,3]dioxolo[4′,5′:4,5]benzo[1,2-d]imidazol-6-yl)-5-(furan-2-yl)nicotinamide] as the compound, how does the pIC50 read?
The pIC50 was > 6.70.

How did the pIC50 turn out when O=C(Nc1nc(C(=O)Nc2nc3cc4c(cc3[nH]2)OC(F)(F)O4)ns1)c1ccsc1 [Compound 10B, N-(2,2-difluoro-5H-[1,3]dioxolo[4′,5′:4,5]benzo[1,2-d]imidazol-6-yl)-5-(thiophene-3-carboxamido)-1,2,4-thiadiazole-3-carboxamide] was run?
Its pIC50 is > 6.70.

O=C(Nc1nc2cc3c(cc2[nH]1)OC(F)(F)O3)c1csc(-c2cccc(F)c2)n1 [Compound 12B, N-(2,2-difluoro-5H-[1,3]dioxolo[4′,5′:4,5]benzo[1,2-d]imidazol-6-yl)-2-(3-fluorophenyl)thiazole-4-carboxamide] was tested. Which pIC50 did it give?
Its pIC50 is > 6.70.

With Cn1cc(C(=O)Nc2nc3cc4c(cc3[nH]2)OC(F)(F)O4)cn1 [Compound 13B, N-(2,2-difluoro-5H-[1,3]dioxolo[4′,5′:4,5]benzo[1,2-d]imidazol-6-yl)-1-methyl-1H-pyrazole-4-carboxamide] as the compound, how does the pIC50 read?
The pIC50 was > 6.70.

With O=C(Nc1nc2cc3c(cc2[nH]1)OC(F)(F)O3)c1ccnc(N2CCSCC2)c1 [Compound 14B, N-(2,2-difluoro-5H-[1,3]dioxolo[4′,5′:4,5]benzo[1,2-d]imidazol-6-yl)-2-thiomorpholinoisonicotinamide] as the compound, how does the pIC50 read?
Its pIC50 is > 6.70.

O=C(Nc1nc2cc3c(cc2[nH]1)OC(F)(F)O3)c1csc(-c2cccc(OC(F)(F)F)c2)n1 [Compound 19B] was tested. Which pIC50 did it give?
Its pIC50 is 6.00 to 6.70.

With O=C(Nc1nc2cc3c(cc2[nH]1)OC(F)(F)O3)c1ccc(-c2ccccc2)cc1 [Compound 21B] as the compound, how does the pIC50 read?
The pIC50 was 6.00 to 6.70.

With O=C(Nc1nc2cc3c(cc2[nH]1)OC(F)(F)O3)c1ccc(-n2cnnn2)cc1 [Compound 22B, N-(2,2-difluoro-5H-[1,3]dioxolo[4′,5′:4,5]benzo[1,2-d]imidazol-6-yl)-4-(1H-tetrazol-1-yl)benzamide] as the compound, how does the pIC50 read?
The pIC50 was > 6.70.

How did the pIC50 turn out when O=C(Nc1nc2cc3c(cc2[nH]1)OC(F)(F)O3)c1cncc(-c2cccs2)c1 [Compound 23B, N-(2,2-difluoro-5H-[1,3]dioxolo[4′,5′:4,5]benzo[1,2-d]imidazol-6-yl)-5-(thiophen-2-yl)nicotinamide] was run?
Its pIC50 is > 6.70.

With COc1cccc(C(=O)Nc2nc3cc4c(cc3[nH]2)OC(F)(F)O4)n1 [Compound 24B] as the compound, how does the pIC50 read?
Its pIC50 is 6.00 to 6.70.

How did the pIC50 turn out when O=C(Nc1nc2cc3c(cc2[nH]1)OC(F)(F)O3)c1cncc(N2CCOCC2)c1 [Compound 25B, N-(2,2-difluoro-5H-[1,3]dioxolo[4′,5′:4,5]benzo[1,2-d]imidazol-6-yl)-5-morpholinonicotinamide] was run?
The pIC50 was > 6.70.

COc1ccnc(C(=O)Nc2nc3cc4c(cc3[nH]2)OC(F)(F)O4)c1 [Compound 26B] was tested. Which pIC50 did it give?
Its pIC50 is < 6.00.

How did the pIC50 turn out when Cc1onc(-c2ccccc2)c1C(=O)Nc1nc2cc3c(cc2[nH]1)OC(F)(F)O3 [Compound 50, N-(2,2-difluoro-5H-[1,3]dioxolo[4′,5′:4,5]benzo[1,2-d]imidazol-6-yl)-5-methyl-3-phenylisoxazole-4-carboxamide] was run?
The pIC50 was < 6.00.

How did the pIC50 turn out when O=C(Nc1nc2cc3c(cc2[nH]1)OC(F)(F)O3)c1ccc([N+](=O)[O-])cc1 [Compound 58, N-(2,2-difluoro-5H-[1,3]dioxolo[4′,5′:4,5]benzo[1,2-d]imidazol-6-yl)-4-nitrobenzamide] was run?
Its pIC50 is 6.00 to 6.70.

O=C(Nc1nc2cc3c(cc2[nH]1)OC(F)(F)O3)c1ccc2ccccc2n1 [Compound 59, N-(2,2-difluoro-5H-[1,3]dioxolo[4′,5′:4,5]benzo[1,2-d]imidazol-6-yl)quinoline-2-carboxamide] was tested. Which pIC50 did it give?
The pIC50 was < 6.00.

How did the pIC50 turn out when Nc1ccc(C(=O)Nc2nc3cc4c(cc3[nH]2)OC(F)(F)O4)cc1 [Compound 60, 4-amino-N-(2,2-difluoro-5H-[1,3]dioxolo[4′,5′:4,5]benzo[1,2-d]imidazol-6-yl)benzamide] was run?
Its pIC50 is > 6.70.

With NS(=O)(=O)c1ccc(C(=O)Nc2nc3cc4c(cc3[nH]2)OC(F)(F)O4)cc1 [Compound 62, N-(2,2-difluoro-5H-[1,3]dioxolo[4′,5′:4,5]benzo[1,2-d]imidazol-6-yl)-4-sulfamoylbenzamide] as the compound, how does the pIC50 read?
Its pIC50 is > 6.70.
